Assay results from PMC2759945, “Cellular transport of anti-inflammatory pro-drugs originated from a herbal formulation of Zingiber cassumunar and Nigella sativa” (Chinese Medicine, 2009).
In brackets after ≈: the same amount, converted by molar mass.

Assays:
[1] = system: porcine liver esterase; assay: Enzyme hydrolysis by porcine liver esterase, monitored by HPLC; type: in vitro ADME; settings: 10 μM, 37°C
Description: Compound 1 (2 mL, 10 μM solution) was pre-incubated at 37°C and 200 μL of esterase enzyme (porcrine liver, 750 units) was added. Samples (200 μL each) were taken at 5, 10, 20, 30 and 60 minutes and added to 200 μL of methanol. Mixtures were vortexed to stop enzymatic activity. Samples were then centrifuged for five minutes at 14,000 × g (Lab Essentials, USA). Supernatant was injected to the HPLC system for the determination of ester pro-drugs and compound D. This procedure was repeated for compounds 2 and 3.

[2] = Transport across Caco-2 cell monolayers, apical to basolateral; type: in vitro ADME, human; settings: human, Caco-2, pH 7.4; for Papp at 100 min, 53 μM: read-out: apparent permeability coefficient Papp at 53 μM; for Papp at 100 min, 106 μM: read-out: apparent permeability coefficient Papp at 106 μM
Description: (§1) Caco-2 cells were maintained in a DMEM at pH7.4, supplemented with 10% fetal bovine serum, 2 mM L-glutamine, 1% non-essential amino acid solution and 0.1% penicillin-streptomycin solution in a humidified atmosphere (5% CO2, 95% air, at 37°C). Cells were grown until 60-70% confluence. Cells from passages 20-40 were used for all experiments. Cells were seeded on tissue culture polycarbonate membrane filters (pore size: 3.0 μm) in 6-well Transwell plates (Corning, USA) at a seeding density of 2 × 10^4cells/cm^2. Culture medium was added to both the donor and the acceptor compartments. Medium was changed every two days. Cells were left to differentiate for 15-21 days after seeding with monitoring of trans-epithelial electrical resistance (TEER) values with a Millicell electrical resistance system (Millipore, USA) and the value should be higher than 600Ω.cm^2.
(§2) Transport experiment across the Caco-2 cell monolayers at pH7.4 was performed. Caco-2 cell monolayers in Transwell (6-well) plates were used for transport studies when they were differentiated and the monolayer was intact, as checked by measuring TEER. Prior to the experiment, the cells were washed twice with phosphate buffered saline (PBS) and pre-equilibrated for one hour with HBSS buffered with 30 mM n-(2-hydroxyethyl) piperazine-n-(2-ethanosulfonic acid) (HEPES) at pH7.4. After medium was removed, the cells were treated with sample solutions (concentrations of 53 μM and 106 μM in HBSS at pH7.4) in an apical compartment. Samples (1 mL) were taken under sink conditions at 0, 5, 20, 40, 60, 80 and 100 minutes from the basolateral side and replaced with an equal volume of fresh HBSS solution. The amount of the compounds from the basolateral side was determined on a UV-spectrophotometer (Thermo Scientific, USA) at 228 nm. Results were expressed as cumulative transport as a function of time. Apparent permeability coefficient was calculated according to the following equation: […]
(§3) where Papp is the apparent permeability coefficient (cm/s), dQ/dt (μg/s) is the rate of appearance of sample on the basolateral side, A is the surface area of the monolayer (cm^2) and C0 (μg/mL) is the initial drug concentration in the donor compartment. All rate constants were obtained from the permeation profiles of each compound. Statistical significance was evaluated with one-way analysis of variance (one-way ANOVA). A value of P < 0.05 was considered statistically significant.

[3] = system: Caco-2 cell monolayers; assay: as above; type: in vitro ADME, human; settings: for Papp at 53 μM / Papp at 106 μM: apical to basolateral, pH7.4, mean (SD), n = 3
Description: as §1, §2, §3

[4] = Chemical hydrolysis in transport medium (HBSS); type: physicochemical; settings: 53 μM and 106 μM in transport medium (HBSS pH7.4), stored at 4°C for 96 hours
Description: Solution of compound 1, 2 and 3 at 53 μM and 106 μM were prepared in Hank's balanced salt solution (HBSS) at pH7.4. All solutions were kept at 4°C for 96 hours and each solution was then analyzed by HPLC at 12, 24, 48, 72 and 96 hours to determine the hydrolysis product.

[5] = system: Mycobacterium tuberculosis H37Ra; design: method as in PMID 17691048; settings: cited from earlier work
[6] = design: method as in PMID 17691048; settings: human vero cell line, cited from earlier work
[7] = system: carrageenan-induced rat paw edema; design: method as in doi:10.1055/s-2006-961309; settings: compound D from a hexane extract of Z. cassumunar; cited from earlier work
[8] = system: uterus of non-pregnant rat; design: method as in PMID 3671553; settings: cited from earlier work
[9] = system: herpes simplex virus (HSV-1); design: method as in PMID 17691048; settings: vero cell line; cited from earlier work
[10] = apical to basolateral direction

Row | Compound | time in which the ester hydrolysis was completed [1] [min] | Papp at 100 min, 53 μM [2] [×10⁻⁶ cm/s] | Papp at 100 min, 106 μM [2] [×10⁻⁶ cm/s] | hydrolysis during the transport across Caco-2 cell monolayers [3] | cumulative transport at 53 μM ([3]; 53 μM, apical to basolateral direction) | Papp at 53 μM ([3]; 53 μM) | cumulative transport at 106 μM [3, 10] | Papp at 106 μM [3] | time after which hydrolysis product compound D was detected by HPLC [4] [h] | Minimal inhibitory concentration [5] [µg/mL] | cytotoxicity IC50 [6] [µg/mL] | effect on edema formation [7] | uterine relaxant effect [8] | cytotoxicity ([6]; at anti-HSV-1 IC50) | anti-HSV-1 IC50 [9] [µg/mL]
1 | CCCCC/C=C\C/C=C\CCCCCCCC(=O)OCC/C=C/c1ccc(OC)c(OC)c1 [Compound 1, (E)-4-(3,4-dimethoxyphenyl)but-3-en-1-yl linoleate] | ≤ 10 | 13.9 | 14.3 | did not occur | highest cumulative transport | 13.94 (0.60) 10^-6cm/s | higher cumulative transport over other two fatty acid ester | 14.33 (0.17) 10^-6cm/s | 24 | 200 (≈ 425 µM) |  |  |  |  | 
2 | CCCCCCCCCCCCCCCC(=O)OCC/C=C/c1ccc(OC)c(OC)c1 [Compound 3, (E)-4-(3,4-dimethoxyphenyl)but-3-en-1-yl palmitate] | ≤ 10 | 7.48 | 8.6 | did not occur |  | 7.48 (0.31)** 10^-6cm/s |  | 8.60 (0.55)** 10^-6cm/s | 24 | 200 (≈ 448 µM) | 38 |  |  |  | 
3 | COc1ccc(/C=C/CCO)cc1OC [Compound D, (E)-4-(3,4-dimethoxyphenyl)but-3-en-1-ol] |  | 8.53 | 16.4 |  |  | 8.53 (0.83)** 10^-6cm/s | cumulative transport close to compound 3 | 16.38 (0.61)** 10^-6cm/s |  |  |  | potent inhibitory effect on edema formation | dose dependent uterine relaxant effect |  | 
4 | CCCCCCCC/C=C\CCCCCCCC(=O)OCC/C=C/c1ccc(OC)c(OC)c1 [Compound 2, (E)-4-(3,4-dimethoxyphenyl)but-3-en-1-yl oleate] | ≤ 10 | 9.45 | 10.1 | did not occur |  | 9.45 (0.29) 10^-6cm/s |  | 10.08 (0.32) 10^-6cm/s | 24 | 100 (≈ 212 µM) |  |  |  | without cytotoxicity | 42.6
